The values below come from patent US20260315464A1, “COMPOSITIONS, METHODS, AND SYSTEMS FOR MODULATING SPLICING OF MSH3” (REVIR THERAPEUTICS, INC., priority 2023, published 2026).

The test system of the test is MSH3. Briefly: QPCR assay for levels of MSH3 upon compound treatment in HEK293T or AD293 cells (fold-change of MSH3 transcript, EC50 of MSH3 downregulation; total MSH3 exons 13/14, exons 20/21; Table 8). It is filed as cell-based. As to conditions: for mrna remaining at 1 µM / mrna remaining at 10 µM: Homo sapiens, fold-change of the MSH3 transcript, normalized to GAPDH; for mrna remaining at 1 µM: 1 μM compound; for mrna remaining at 10 µM: 10 μM compound; for EC50: EC50 of MSH3 downregulation, XtalPi. The essentials: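 HEK293T or AD293 cells were treated at 1 μM and […]; RNA-to-cDNA qPCR used TaqMan assays for total MSH3 (exons 13/14, exons 20/21) and poison-exon junctions exon 13/PE14A and exon 20/PE21A. Transcript levels were normalized to GAPDH.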

In the case of `Cn1ncc(-c2cc(F)c3c(c2)C(=O)N(c2ccc(N4CCN[C@@H](C(C)(C)C)C4)nn2)C3)n1` [Compound 630, (S)-2-(6-(3-(tert-butyl)piperazin-1-yl)pyridazin-3-yl)-4-fluoro-6-(2-methyl-2H-1,2,3-triazol-4-yl)isoindolin-1-one], the mrna remaining at 1 µM was 106% and the mrna remaining at 10 µM amounted to 72%.
Taken in the same sequence, the figures for `Cc1nn(C)cc1-c1cnc2c(c1)C(=O)N(c1ccc(OC3CCNC(C)(C)C3)nn1)C2` (stereo not drawn) [Compound 226, 3-(1,3-dimethyl-1H-pyrazol-4-yl)-6-(6-((2,2-dimethylpiperidin-4-yl)oxy)pyridazin-3-yl)-6,7-dihydro-5H-pyrrolo[3,4-b]pyridin-5-one] were 86% and 58%.
Taken in the same sequence, the figures for `Cc1nn(C)nc1-c1cnc2c(c1)C(=O)N(c1ccc(N3CCN4CCC[C@H]4C3)nn1)C2` [Compound 615, (S)-3-(2,5-dimethyl-2H-1,2,3-triazol-4-yl)-6-(6-(hexahydropyrrolo[1,2-a]pyrazin-2(1H)-yl)pyridazin-3-yl)-6,7-dihydro-5H-pyrrolo[3,4-b]pyridin-5-one] were 81% and 53%.
In the same order, the values of `CN(c1ccc(N2Cc3ncc(-c4cnn(C)c4)cc3C2=O)nn1)C1CC(C)(C)NC(C)(C)C1` [Compound 148, 6-(6-(methyl(2,2,6,6-tetramethylpiperidin-4-yl)amino)pyridazin-3-yl)-3-(1-methyl-1H-pyrazol-4-yl)-6,7-dihydro-5H-pyrrolo[3,4-b]pyridin-5-one] are 103% and 40%.
`Cn1ncc(-c2cc(F)c3c(c2)C(=O)N(c2ccc(O[C@H]4C[C@]5(C)CC[C@](C)(C4)N5)nn2)C3)n1` [Compound 631, 2-(6-(((1R,3s,5S)-1,5-dimethyl-8-azabicyclo[3.2.1]octan-3-yl)oxy)pyridazin-3-yl)-4-fluoro-6-(2-methyl-2H-1,2,3-triazol-4-yl)isoindolin-1-one]: the mrna remaining at 1 µM was 86% and the mrna remaining at 10 µM is 69%.
For the molecule `Cc1nn(C)cc1-c1cc(F)c2c(c1)C(=O)N(c1ccc(O[C@H]3CC(C)(C)NC(C)(C)[C@H]3F)nn1)C2` [Compound 280, 6-(1,3-dimethyl-1H-pyrazol-4-yl)-4-fluoro-2-(6-(((3R,4S)-3-fluoro-2,2,6,6-tetramethylpiperidin-4-yl)oxy)pyridazin-3-yl)isoindolin-1-one], the mrna remaining at 1 µM stood at 99% and the mrna remaining at 10 µM was 66%.
In the case of `Cc1nc(C)c(-c2cc3c(cn2)CN(c2ccc(N(C)[C@H]4C[C@]5(C)CC[C@](C)(C4)N5)nn2)C3=O)s1` [Compound 62, 2-(6-(((1R,3s,5S)-1,5-dimethyl-8-azabicyclo[3.2.1]octan-3-yl)(methyl)amino)pyridazin-3-yl)-6-(2,4-dimethylthiazol-5-yl)-2,3-dihydro-1H-pyrrolo[3,4-c]pyridin-1-one], the EC50 stood at 690 nM, the mrna remaining at 1 µM was 18% and the mrna remaining at 10 µM is 8%.
`Cn1nc(Cl)c(-c2cc(F)c3c(c2)C(=O)N(c2ccc(N4CC[C@@H](NC(C)(C)C)C4)nn2)C3)n1` [Compound 656, (R)-2-(6-(3-(tert-butylamino)pyrrolidin-1-yl)pyridazin-3-yl)-6-(5-chloro-2-methyl-2H-1,2,3-triazol-4-yl)-4-fluoroisoindolin-1-one]: the mrna remaining at 1 µM came to 70% and the mrna remaining at 10 µM was 43%.
In the case of `Cc1nn(C)nc1-c1cnc2c(c1)C(=O)N(c1ccc(OC3CC(C)(C)NC4(CC4)C3)nn1)C2` (stereo not drawn) [Compound 228, 3-(2,5-dimethyl-2H-1,2,3-triazol-4-yl)-6-(6-((5,5-dimethyl-4-azaspiro[2.5]octan-7-yl)oxy)pyridazin-3-yl)-6,7-dihydro-5H-pyrrolo[3,4-b]pyridin-5-one], the EC50 turned out to be 792 nM, the mrna remaining at 1 µM is 58% and the mrna remaining at 10 µM was determined as 37%.
Regarding `Cc1nn(C)cc1-c1cnc2c(c1)C(=O)N(c1ccc(OC3CC(C)(C)NC4(CC4)C3)nn1)C2` (stereo not drawn) [Compound 205, 3-(1,3-dimethyl-1H-pyrazol-4-yl)-6-(6-((5,5-dimethyl-4-azaspiro[2.5]octan-7-yl)oxy)pyridazin-3-yl)-6,7-dihydro-5H-pyrrolo[3,4-b]pyridin-5-one], the EC50 is 1420 nM, the mrna remaining at 1 µM is 90% and the mrna remaining at 10 µM came out at 14%.
For `Cn1nc(Cl)c(-c2cc(F)c3c(c2)C(=O)N(c2ccc(N4CCNC(C)(C)C4)nn2)C3)n1` [Compound 642, 6-(5-chloro-2-methyl-2H-1,2,3-triazol-4-yl)-2-(6-(3,3-dimethylpiperazin-1-yl)pyridazin-3-yl)-4-fluoroisoindolin-1-one], the mrna remaining at 1 µM turned out to be 91% and the mrna remaining at 10 µM came out at 21%.
Regarding `Cc1ncc(-c2cnc3c(c2)C(=O)N(c2ccc(O[C@H]4C[C@]5(C)CC[C@](C)(C4)N5)nn2)C3)s1` [Compound 598, 6-(6-(((1R,3s,5S)-1,5-dimethyl-8-azabicyclo[3.2.1]octan-3-yl)oxy)pyridazin-3-yl)-3-(2-methylthiazol-5-yl)-6,7-dihydro-5H-pyrrolo[3,4-b]pyridin-5-one], the mrna remaining at 1 µM stood at 62% and the mrna remaining at 10 µM was 52%.
Taken in the same sequence, the figures for `Cn1cc(-c2cc3c(cn2)CN(c2ccc(O[C@H]4C[C@]5(C)CC[C@](C)(C4)N5)nn2)C3=O)c(F)n1` [Compound 107, 2-(6-(((1R,3s,5S)-1,5-dimethyl-8-azabicyclo[3.2.1]octan-3-yl)oxy)pyridazin-3-yl)-6-(3-fluoro-1-methyl-1H-pyrazol-4-yl)-2,3-dihydro-1H-pyrrolo[3,4-c]pyridin-1-one] were 97% and 75%.
Regarding `Cc1nn(C)nc1-c1cnc2c(c1)C(=O)N(c1ccc(O[C@H]3C[C@]4(C)CC[C@](C)(C3)N4)nn1)C2` [Compound 206, 3-(2,5-dimethyl-2H-1,2,3-triazol-4-yl)-6-(6-(((1R,3s,5S)-1,5-dimethyl-8-azabicyclo[3.2.1]octan-3-yl)oxy)pyridazin-3-yl)-6,7-dihydro-5H-pyrrolo[3,4-b]pyridin-5-one], the 50% effective concentration (EC50) was found to be 507 nM, the mrna remaining at 1 µM was 36% and the mrna remaining at 10 µM amounted to 13%.
Turning to `Cc1nn(C)cc1-c1cc(F)c2c(c1)C(=O)N(c1cnc(N(C)[C@H]3C[C@]4(C)CC[C@](C)(C3)N4)nn1)C2` [Compound 291, 6-(1,3-dimethyl-1H-pyrazol-4-yl)-2-(3-(((1R,3s,5S)-1,5-dimethyl-8-azabicyclo[3.2.1]octan-3-yl)(methyl)amino)-1,2,4-triazin-6-yl)-4-fluoroisoindolin-1-one], the mrna remaining at 1 µM was found to be 93% and the mrna remaining at 10 µM came out at 81%.
As to `CN(c1ccc(N2Cc3c(F)cc(-c4cnn(CC(C)(C)O)n4)cc3C2=O)nn1)C1CC(C)(C)NC(C)(C)C1` [Compound 633, 4-fluoro-6-(2-(2-hydroxy-2-methylpropyl)-2H-1,2,3-triazol-4-yl)-2-(6-(methyl(2,2,6,6-tetramethylpiperidin-4-yl)amino)pyridazin-3-yl)isoindolin-1-one], the mrna remaining at 1 µM came out at 109% and the mrna remaining at 10 µM came out at 89%.
Regarding `Cn1nc(Cl)c(-c2cnc3c(n2)C(=O)N(c2ccc(OC4CCC(C)(C)NC(C)(C)C4)nn2)C3)n1` (stereo not drawn) [Compound 509, 3-(5-chloro-2-methyl-2H-1,2,3-triazol-4-yl)-6-(6-((2,2,7,7-tetramethylazepan-4-yl)oxy)pyridazin-3-yl)-6,7-dihydro-5H-pyrrolo[3,4-b]pyrazin-5-one], the mrna remaining at 1 µM worked out at 117% and the mrna remaining at 10 µM turned out to be 62%.
In the case of `Cc1nn(C)nc1-c1ccc2c(c1)C(=O)N(c1ccc(O[C@H]3C[C@]4(C)CC[C@](C)(C3)N4)nn1)C2` [Compound 439, 6-(2,5-dimethyl-2H-1,2,3-triazol-4-yl)-2-(6-(((1R,3s,5S)-1,5-dimethyl-8-azabicyclo[3.2.1]octan-3-yl)oxy)pyridazin-3-yl)isoindolin-1-one], the mrna remaining at 1 µM is 87% and the mrna remaining at 10 µM is 72%.
On to `Cc1nn(C)nc1-c1cnc2c(c1)C(=O)N(c1ccc(N3CCC4(CCCN4)CC3)nn1)C2` [Compound 603, 6-(6-(1,8-diazaspiro[4.5]decan-8-yl)pyridazin-3-yl)-3-(2,5-dimethyl-2H-1,2,3-triazol-4-yl)-6,7-dihydro-5H-pyrrolo[3,4-b]pyridin-5-one], for which the mrna remaining at 1 µM is 155% and the mrna remaining at 10 µM was found to be 94%.
With `Cc1nn(C)cc1-c1cc2c(cn1)CN(c1ccc(OC3CC(C)(C)NC4(CCC4)C3)nn1)C2=O` (stereo not drawn) [Compound 593, 6-(1,3-dimethyl-1H-pyrazol-4-yl)-2-(6-((6,6-dimethyl-5-azaspiro[3.5]nonan-8-yl)oxy)pyridazin-3-yl)-2,3-dihydro-1H-pyrrolo[3,4-c]pyridin-1-one], the mrna remaining at 1 µM turned out to be 105% and the mrna remaining at 10 µM came out at 34%.
Take `Cc1nn(C)cc1-c1cc2c(cn1)CN(c1ccc(OC3CC(C)(C)NC(C)(C)C3)nn1)C2=O` [Compound 76, 6-(1,3-dimethyl-1H-pyrazol-4-yl)-2-(6-((2,2,6,6-tetramethylpiperidin-4-yl)oxy)pyridazin-3-yl)-2,3-dihydro-1H-pyrrolo[3,4-c]pyridin-1-one]: the mrna remaining at 1 µM came out at 98% and the mrna remaining at 10 µM was determined as 20%.
Taken in the same sequence, the figures for `Cn1ncc(-c2ccc3c(c2)C(=O)N(c2ccc(O[C@H]4C[C@]5(C)CC[C@](C)(C4)N5)nn2)C3)n1` [Compound 425, 2-(6-(((1R,3s,5S)-1,5-dimethyl-8-azabicyclo[3.2.1]octan-3-yl)oxy)pyridazin-3-yl)-6-(2-methyl-2H-1,2,3-triazol-4-yl)isoindolin-1-one] were 82% and 70%.

In general, EC50 refers to the concentration that produces a half-maximal response.
